In patent US20060172361A1, “Assay for detection of translocase enzyme activity in drug screening” (AstraZeneca AB, priority 2000, published 2006):

How the values were obtained:
transferase enzyme = assay: Scintillation proximity assay of transferase alone, with pre-formed Lipid I and Tunicamycin block, using E. coli AMA1004 ΔponB membranes (Example 4); type: biochemical, Escherichia coli; settings: after subtracting 0% reaction readings
Procedure: Microbiol., (1985), 131, 2839-2845. The plate was incubated for 20 min at 37° C.
(ii) Tunicamycin was then added to a final concentration of 10 μg/ml, followed by a test compound (e.g. Vancomycin or Nisin) of varying concentration in dimethyl sulphoxide. Nisin and Vancomycin are known antagonists of the transferase enzyme.
(iii) Then to the reaction well, in a 5 μl volume, the substrate for the transferase was added: 2.5 μM tritiated UDP-N-acetyl glucosamine (0.5 μCi per well). The microtitre plate was incubated for 5 min at 37° C.
(iv) The reaction was terminated by diluting out the radiolabel i.e. by addition of 25 μl of 200 μM unlabelled UDP-GlcNAc.

[1] = system: translocase and transferase enzymes; assay: Scintillation proximity assay of Lipid II synthesis (translocase plus transferase) with lysozyme-prepared E. coli AMA1004 membranes (Example 3); settings: 100 μM test compound; after subtracting 0% reaction readings
Procedure: (i) The wells of a microtitre plate were individually filled with a total volume of 25 μl of a reaction mixture comprising an aqueous buffer solution of 50 mM HEPES-ammonia (N-[2-Hydroxyethyl]piperazine-N′-[2-ethanesulfonic acid]) (pH 7.5), and 10 mM magnesium chloride 15 μM UDP-MurNAc-L-alanine-γ-D-glutamic acid-m-diaminopimelic acid-D-alanine-D-alanine, 2.5 μM tritiated UDP-N-acetyl glucosamine (0.2 μCi per well), 6 μg of Escherichia coli AMA1004 cell membranes prepared as described below and a solution of test compound (e.g. Tunicamycin, Vancomycin) of varying concentration in 4% dimethylsulphoxide.
Four wells of the microtitre plate were used as controls: two wells contained no UDP-N-acetylmuramylpentapeptide (0% reaction controls) and a further two wells contained no test compound (100% reaction controls).
If the purpose of the screen is to study the effect of an inhibitor of the transferase or translocase the test compound is added along with the substrates at step (i).
The E. coli membranes were prepared as follows.
Four to five colonies of the bacteria from an LB (Luria Bertani medium) agar plate were inoculated into 5 ml LB-broth and grown during the day (for 6-8 hours) at 37° C. […]
The plate was left for 3 hours/overnight at room temperature before being counted in the “Microbeta Trilux” counter.

Compound	% Enzyme Activity (transferase enzyme; 10 μg/ml test compound)	% Inhibition [1] [%]	% Enzyme Activity (transferase enzyme; 100 μM test compound)
Nisin	˜30%	–	–
CN[C@H](CC(C)C)C(=O)N[C@H]1C(=O)N[C@@H](CC(N)=O)C(=O)N[C@H]2C(=O)N[C@H]3C(=O)N[C@H](C(=O)N[C@H](C(=O)O)c4cc(O)cc(O)c4-c4cc3ccc4O)[C@H](O)c3ccc(c(Cl)c3)Oc3cc2cc(c3O[C@@H]2O[C@H](CO)[C@@H](O)[C@H](O)[C@H]2O[C@H]2C[C@](C)(N)[C@H](O)[C@H](C)O2)Oc2ccc(cc2Cl)[C@H]1O [Vancomycin]	–	82	˜50%
